{"source": "patent US11040937B2", "about": "“Amide derivative” (TOHOKU UNIVERSITY, priority 2014, dated 2021)", "tested_on": "A549 cells", "assay": "Matrix-Invasion assay (Matrigel)", "type": "cell-based, human", "conditions": "10 μmol/L, 48±4 hours, significance level less than 5%", "experimental": "As a second test for determining whether or not the physiological function of cells induced by the OPN production is inhibited with a test compound, Matrix-Invasion assay was performed. In this assay, cups (inserts) whose bottom was covered with a membrane having φ8 μm pores coated with collagen or laminin (Matrigel, BD Bioscience) that is an extracellular matrix component and a 24-well plate for inserting the inserts were prepared. […]\nSpecifically, a fluorescent dye was introduced into A549 cells invading outside the membrane, and then the cells were separated from the membrane to measure their fluorescence intensity. At the same time, a fluorescent dye was introduced into a known number of cells for preparing a calibration curve, and a calibration curve was prepared from their fluorescence intensity. Then, the number of invading cells of a test sample containing an unknown number of cells was determined from the fitted curve. […]\nThe cells of human non-small cell lung cancer-derived cell line A549 were suspended in DMEM medium containing 10% FCS and 1% P/S at 1.8×10^5 cells/mL to obtain a cell suspension. […] This day was counted as Day 0 of operation. […]", "data": [{"molecule": "COc1ccc(Oc2cccc(C(=O)CCNC(=O)c3ccc(O)cc3)c2N)cc1", "note": "[Compound 6, N-(3-(2-Amino-3-(4-methoxyphenoxy)phenyl)-3-oxopropyl)-4-hydroxybenzamide]", "values": [{"measurement": "number of invading cells vs control group", "result": "significantly inhibited"}]}]}
